Measurements published in patent publication US20230096663A1, “FARNESOID X RECEPTOR MODULATING COMPOUNDS AND METHODS OF USING THE SAME” (Inorbit Therapeutics AB, priority 2020, published 2023).
Like-named read-outs stand apart in the source and are kept apart here.

Tests used:
[1] = tested on: FXR related genes (BSEP, SHP) in primary human hepatocytes; test: Gene expression in human primary hepatocytes (BSEP, SHP); format: cell-based; conditions: 24 hours incubation
Protocol: The test compound was dissolved in buffer to give a 10 mM stock solution. The compound was serially diluted to the desired concentrations and then incubated with human primary hepatocytes for 24 hours at 37° C. in a CO2 incubator. After incubation, the media was removed and the RNA harvested using the Trizol-CHCl3 method and quantified using Nano drop. The RNA was then Reverse Transcribed to cDNA using a superscript vilo cDNA synthesis kit. The cDNA with respective Taqman primers, master mix are then amplified using quantitative RT-PCR system. […] The compounds of examples 2 and 3 upregulate FXR related and disease relevant genes on incubation with primary human hepatocytes. […] It is a uni-directional, ATP-dependent efflux transporter that plays an important role in the elimination of bile salts from the hepatocyte into the bile canaliculi for export into the gastrointestinal tract. FXR also induces the expression of small heterodimer partner (SHP) which controls a complex set of genes in multiple metabolic pathways. It reduces the expression of CYP7A1, a liver-specific enzyme that catalyzes the first and rate-limiting step in one of the two pathways for bile acid biosynthesis.

[2] = Compound exposure in plasma and liver of HFHC fed male mice; format: in vivo; conditions: C57BL/6J, mouse, oral
[3] = tested on: HFHC fed male C57BL/6 mice; test: In-vivo efficacy in high fat high cholesterol diet (HFHC) fed male C57BL/6 mice; conditions: oral, 3 mg/kg BID, 3 mg/kg QD and 10 mg/kg BID, after 28 days
Protocol: C57BL/6J male mice were purchased at the age of 8 weeks. After an acclimation period of 1 week, animals were maintained on high fat high cholesterol diet (Research diets) with 60% kcal from fat plus 0.5% (w/w) extra cholesterol (Research diet, D02051401) for a period of 4 weeks. Age matched control animals (n=6) were maintained on normal chow. Mice were dosed with vehicle, test compounds and GW4064 morning (7.00 AM) and evening (5:00 PM) from day 0 to 27. At 28th day, animals were dosed at 7:00 AM and kept on fasting for next 4 hours before blood and tissues collection. Plasma samples separated from collected blood were stored at −20° C. immediately for estimation analysis. The samples were analyzed using the Siemens Dimension RxL Max Clinical chemistry analyzer.
Right liver lobe was used for the test compounds exposure, triglyceride and cholesterol estimation. Liver tissues were dissected, weighed and snap frozen and stored at −80° C. for further analysis of hepatic triglyceride, cholesterol and compound exposure. In brief, stored tissues were thawed to room temperature and triglycerides were extracted by homogenizing 25 mg of liver tissues in 1 ml of 5% Triton X100 (Lot No. 61K01741-Sigma Aldrich) in water. Homogenized tissues were slowly heated to 80° C. in water bath for 5 minutes. The samples were cooled down and again heated to solubilize all the triglycerides into solution. The samples were centrifuged for 5 minutes at 4000 RPM and supernatant was collected for quantification^3 using commercially available kit from ERBA (Lot No. B061832).
Homogenized samples were centrifuge at 13000 g for 10 minutes to remove insoluble material. The organic phase was separated into new tube and air dried at 50° C. to remove chloroform. Thereafter, samples were vacuumed for 30 minutes to remove residue organic solvent. Dried lipids were dissolved in 200 μL of cholesterol assay buffer (provided with Sigma cholesterol assay kit Lot No. B2J210603V), sonicated for 20 minutes and vortexed until mixture was homogenous as mentioned in kit protocol. Samples were diluted with cholesterol assay buffer at (1:10) ratio to fit in standard curve and finally 50 μL of diluted samples were used for the assay.
Compound levels were also measured in the plasma and liver to understand its distribution profile.

SMILES: Cc1cc(S(=O)[O-])cc2sc(N3[C@@H]4CC[C@H]3C[C@@H](OCc3c(-c5ccccc5OC(F)(F)F)noc3C3CC3)C4)nc12.[Na+] [Example 3, Sodium 2-(3-((5-cyclopropyl-3-(2-(trifluoromethoxy)phenyl)isoxazol-4-yl)methoxy)-8-azabicyclo[3.2.1]octan-8-yl)-4-methylbenzo[d]thiazole-6-sulfinate]
- Expression of FXR related and disease relevant genes (BSEP, SHP) [1]: upregulate
- concentration at 4 h ([2]; liver, 3 mg/kg, 3 mg/kg BID oral, 4 hours after last dose on day 28, read-out: Mean compound exposure, Liver): 88.9 ng/g
- concentration at 4 h ([2]; liver, 10 mg/kg, 10 mg/kg BID oral, 4 hours after last dose on day 28, read-out: Mean compound exposure, Liver): 198 ng/g
- concentration at 4 h ([2]; liver, 10 mg/kg, 10 mg/kg QD oral, 4 hours after last dose on day 28, read-out: Mean compound exposure, Liver): 176 ng/g
- concentration at 4 h ([2]; plasma, 3 mg/kg, 3 mg/kg BID oral, 4 hours after last dose on day 28, read-out: Mean compound exposure, Plasma): 3.7 ng/mL
- concentration at 4 h ([2]; plasma, 10 mg/kg, 10 mg/kg BID oral, 4 hours after last dose on day 28, read-out: Mean compound exposure, Plasma): 11.5 ng/mL
- concentration at 4 h ([2]; plasma, 10 mg/kg, 10 mg/kg QD oral, 4 hours after last dose on day 28, read-out: Mean compound exposure, Plasma): 5.9 ng/mL
- Cholesterol levels in the liver [3]: reductions
- Cholesterol levels in the plasma [3]: reductions
- Liver triglycerides [3]: reductions
